Data published in the COVID Moonshot data (paper PMC11187573), “Identification of SARS-CoV-2 Mpro inhibitors through deep reinforcement learning for de novo drug design and computational chemistry approaches” (RSC Medicinal Chemistry, 2024).

Experiments:
[1] = target: SARS-CoV-2 Main Protease (SARS-CoV-2) (UniProt P0DTD1)
[2] = target: SARS-CoV-2 Main Protease (SARS-CoV-2) (UniProt P0DTD1); remark: listed apart in the source
Description: Briefly, compounds were seeded into assay-ready plates (Greiner 384PP, cat# 781280) using an ECHO 650T dispenser and DMSO was back-filled for a uniform concentration in assay plates (DMSO concentration < 1%, final volume = 500 nL.). […] After a quick centrifugation step (1000 rpm, 15 s) the plate is incubated for 15 min at room temperature. […] After centrifugation (1000 rpm, 14 s) the reaction is incubated for 10 min (11-mer) or 5 min (37-mer) at room temperature before quenching with 10 % formic acid. The reactions are analysed with MS using RapidFire (RF) 365 high-throughput sampling robot (Agilent) connected to an iFunnel Agilent 6550 accurate mass quadrupole time-of-flight (Q-TOF) mass spectrometer using electrospray. […] Dose response curves uses an 11-point range of 100--0.0017 µM inhibitor concentrations. RapidFire integrator software (Agilent) was used to extract the charged states from the total ion chromatogram data followed by peak integration. For the 11-mer peptide the m/z (+1) charge states of both the substrate (1191.67 Da) and cleaved N-terminal product TSAVLQ (617.34 Da) were used and the 37-mer peptide the m/z (+2) charge states of the substrate (3960.94 Da) and m/z (+1) of the cleaved C-terminal product [sequence] (1125.57 Da). Percentage conversion (product peak integral / (product peak integral + substrate peak integral))*100) and percentage inhibitions were calculated and normalised against DMSO control with deduction of any background signal in Microsoft Excel. IC50s were calculated using Levenberg–Marquardt algorithm used to fit a restrained Hill equation to the dose-response data with both GraphPad PRISM and CDD.

trypsin = trypsin (UniProt P07477)
trypsin, sequence (P07477 whole entry, looked up): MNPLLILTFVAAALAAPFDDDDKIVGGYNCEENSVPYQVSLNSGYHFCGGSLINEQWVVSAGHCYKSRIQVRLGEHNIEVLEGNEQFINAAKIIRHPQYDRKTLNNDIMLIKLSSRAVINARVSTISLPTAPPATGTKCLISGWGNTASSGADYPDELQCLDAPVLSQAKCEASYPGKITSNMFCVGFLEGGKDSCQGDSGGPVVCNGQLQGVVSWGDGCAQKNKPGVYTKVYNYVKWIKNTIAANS

O=C(CCl)N1CCN(Cc2cc(Cl)ccc2CNC(=O)N2CCOCC2)CC1
inhibition ([1]; 20.0 µM): 77.2% | inhibition ([1]; 50.0 µM): 79% | IC50 [2]: 5.55 µM | inhibition ([2]; 50.0 µM): 93.3% | relative solubility at 20 uM (20.0 µM): 0.98 | relative solubility at 100 uM (100.0 µM): 0.94 | IC50 (trypsin): 15.8 µM
